Where a SMILES comes first, the peptide text is derived from it. Bridges are numbered along the chain shown (N, C = ends). [ ]: non-standard residue; d: D form. The star is where a group is joined. ξ: configuration not given here. Phe(4-COOH) = N[C@@H](Cc1ccc(C(=O)O)cc1)C(=O)O; Bip = N[C@@H](Cc1ccc(-c2ccccc2)cc1)C(=O)O; Phe(3-Me) = Cc1cccc(C[C@H](N)C(=O)O)c1; Phe(4-F) = N[C@@H](Cc1ccc(F)cc1)C(=O)O; Val(3-OH) = CC(C)(O)[C@H](N)C(=O)O; Cha = N[C@@H](CC1CCCCC1)C(=O)O; Thr(3ξ) = CC(O)[C@H](N)C(=O)O; NMeNle = CCCC[C@H](NC)C(=O)O; Carboxymethyl = O=C(O)C*; NMeA = CN[C@@H](C)C(=O)O; Nle = CCCC[C@H](N)C(=O)O; Aun = NCCCCCCCCCCC(=O)O; Dab = NCC[C@H](N)C(=O)O; AEEA = NCCOCCOCC(=O)O
molecular target: T1, PD-1/PD-L1 interaction (PE-labeled human PD-L1-Ig binding to Jurkat cell line over-expressing human PD-1) (Homo sapiens, UniProt Q15116); test: Jurkat-PD-1 Cell Binding High-Content Screening Assay (CBA); settings: PE-labeled PD-L1-Ig 20 nM final, Jurkat-hPD-1 cells; read-out: Jurkat HPD1 PDL1 IC50
T1 construct: expressed in transfected cells; host or cells: Jurkat
T1 sequence (Q15116 25-288): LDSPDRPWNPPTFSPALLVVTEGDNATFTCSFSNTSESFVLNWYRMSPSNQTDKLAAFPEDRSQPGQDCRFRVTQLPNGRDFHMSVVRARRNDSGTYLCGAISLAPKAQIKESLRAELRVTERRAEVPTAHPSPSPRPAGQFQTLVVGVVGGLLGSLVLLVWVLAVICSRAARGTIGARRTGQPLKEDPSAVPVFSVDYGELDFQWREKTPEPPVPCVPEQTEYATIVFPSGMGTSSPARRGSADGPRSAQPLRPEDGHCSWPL
Method in brief: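 Read-out: high-content imaging of cell-bound PE fluorescence, with Hoechst 33342 nuclear counterstain after paraformaldehyde fixation. Before labeled ligand (20 nM final, 1 h) was added, compound sat on the cells for 2 h at 37 °C in DMEM/10% FCS.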

| Structure (SMILES) | IC50 [nM] |
| --- | --- |
| CCCC[C@H]1C(=O)N[C@@H](Cc2ccc(C(=O)O)cc2)C(=O)N[C@@H](CC(=O)O)C(=O)N[C@@H](Cc2cccc(C)c2)C(=O)N[C@@H](Cc2ccc(C(=O)O)cc2)C(=O)N[C@@H](Cc2ccc(-c3ccccc3)cc2)C(=O)N[C@@H](Cc2ccc(C(=O)O)cc2)C(=O)N(C)[C@@H](C)C(=O)N[C@H](CC(C)C)C(=O)N[C@@H](CCN)C(=O)N[C@@H](CC2CCCCC2)C(=O)N[C@@H](C(C)C)C(=O)N[C@@H](CCC(=O)O)C(=O)N[C@H](C(=O)N[C@@H](CCN)C(=O)NCCOCCOCC(=O)NCCCCCCCCCCC(=O)O)CSCC(=O)N1C [Example 2543] ({CH2CO}-[NMeNle][Phe(4-COOH)]D[Phe(3-Me)][Phe(4-COOH)][Bip][Phe(4-COOH)][NMeA][dL][Dab][Cha]VEC[Dab][AEEA][Aun]-OH; thioether N-14) | 32 |
| Cc1cccc(C[C@@H]2NC(=O)[C@H](CC(=O)O)NC(=O)[C@H](Cc3ccc(C(=O)O)cc3)NC(=O)[C@H](C(C)O)NC(=O)CSC[C@@H](C(=O)N[C@@H](CCN)C(=O)NCCOCCOCC(=O)NCCCCCCCCCCC(=O)O)NC(=O)[C@H](Cc3cnc[nH]3)NC(=O)[C@H](C(C)(C)O)NC(=O)[C@H](CC3CCCCC3)NC(=O)[C@H](CCN)NC(=O)[C@@H](CC(C)C)NC(=O)[C@H](C)N(C)C(=O)[C@H](Cc3ccc(C(=O)O)cc3)NC(=O)[C@H](Cc3ccc(-c4ccccc4)cc3)NC(=O)[C@H](Cc3ccc(C(=O)O)cc3)NC2=O)c1 (stereo partly drawn) [Example 2545] ({CH2CO}-[Thr(3ξ)][Phe(4-COOH)]D[Phe(3-Me)][Phe(4-COOH)][Bip][Phe(4-COOH)][NMeA][dL][Dab][Cha][Val(3-OH)]HC[Dab][AEEA][Aun]-OH; thioether N-14) | 13.1 |
| Cc1cccc(C[C@@H]2NC(=O)[C@H](CC(=O)O)NC(=O)[C@H](Cc3ccc(C(=O)O)cc3)NC(=O)[C@H](CCN)NC(=O)CSC[C@@H](C(=O)N[C@@H](CCN)C(=O)NCCOCCOCC(=O)NCCCCCCCCCCC(=O)O)NC(=O)[C@H](CCC(=O)O)NC(=O)[C@H](C(C)C)NC(=O)[C@H](CC3CCCCC3)NC(=O)[C@H](CCN)NC(=O)[C@@H](CC(C)C)NC(=O)[C@H](C)N(C)C(=O)[C@H](Cc3ccc(C(=O)O)cc3)NC(=O)[C@H](Cc3ccc(-c4ccccc4)cc3)NC(=O)[C@H](Cc3ccc(C(=O)O)cc3)NC2=O)c1 [Example 2546] ({CH2CO}-[Dab][Phe(4-COOH)]D[Phe(3-Me)][Phe(4-COOH)][Bip][Phe(4-COOH)][NMeA][dL][Dab][Cha]VEC[Dab][AEEA][Aun]-OH; thioether N-14) | 11.7 |
| Cc1cccc(C[C@@H]2NC(=O)[C@H](CC(=O)O)NC(=O)[C@H](Cc3ccc(C(=O)O)cc3)NC(=O)[C@H](C(C)O)NC(=O)CSC[C@@H](C(=O)N[C@@H](CCN)C(=O)NCCOCCOCC(=O)NCCCCCCCCCCC(=O)O)NC(=O)[C@H](CCC(=O)O)NC(=O)[C@H](C(C)C)NC(=O)[C@H](CC3CCCCC3)NC(=O)[C@H](CCN)NC(=O)[C@@H](CC(C)C)NC(=O)[C@H](C)N(C)C(=O)[C@H](Cc3ccc(C(=O)O)cc3)NC(=O)[C@H](Cc3ccc(-c4ccccc4)cc3)NC(=O)[C@H](Cc3ccc(C(=O)O)cc3)NC2=O)c1 (stereo partly drawn) [Example 2547] ({CH2CO}-[Thr(3ξ)][Phe(4-COOH)]D[Phe(3-Me)][Phe(4-COOH)][Bip][Phe(4-COOH)][NMeA][dL][Dab][Cha]VEC[Dab][AEEA][Aun]-OH; thioether N-14) | 14.9 |
| Cc1cccc(C[C@@H]2NC(=O)[C@H](CC(=O)O)NC(=O)[C@H](Cc3ccc(C(=O)O)cc3)NC(=O)[C@H](Cc3ccc(F)cc3)NC(=O)CSC[C@@H](C(=O)N[C@@H](CCN)C(=O)NCCOCCOCC(=O)NCCCCCCCCCCC(=O)O)NC(=O)[C@H](CCC(=O)O)NC(=O)[C@H](C(C)C)NC(=O)[C@H](CC3CCCCC3)NC(=O)[C@H](CCN)NC(=O)[C@@H](CC(C)C)NC(=O)[C@H](C)N(C)C(=O)[C@H](Cc3ccc(C(=O)O)cc3)NC(=O)[C@H](Cc3ccc(-c4ccccc4)cc3)NC(=O)[C@H](Cc3ccc(C(=O)O)cc3)NC2=O)c1 [Example 2548] ({CH2CO}-[Phe(4-F)][Phe(4-COOH)]D[Phe(3-Me)][Phe(4-COOH)][Bip][Phe(4-COOH)][NMeA][dL][Dab][Cha]VEC[Dab][AEEA][Aun]-OH; thioether N-14) | 19.6 |
| CCCC[C@@H]1NC(=O)CSC[C@@H](C(=O)N[C@@H](CCN)C(=O)NCCOCCOCC(=O)NCCCCCCCCCCC(=O)O)NC(=O)[C@H](CCC(=O)O)NC(=O)[C@H](C(C)C)NC(=O)[C@H](CC2CCCCC2)NC(=O)[C@H](CCN)NC(=O)[C@@H](CC(C)C)NC(=O)[C@H](C)N(C)C(=O)[C@H](Cc2ccc(C(=O)O)cc2)NC(=O)[C@H](Cc2ccc(-c3ccccc3)cc2)NC(=O)[C@H](Cc2ccc(C(=O)O)cc2)NC(=O)[C@H](Cc2cccc(C)c2)NC(=O)[C@H](CC(=O)O)NC(=O)[C@H](Cc2ccc(C(=O)O)cc2)NC1=O [Example 2549] ({CH2CO}-[Nle][Phe(4-COOH)]D[Phe(3-Me)][Phe(4-COOH)][Bip][Phe(4-COOH)][NMeA][dL][Dab][Cha]VEC[Dab][AEEA][Aun]-OH; thioether N-14) | 5.4 |
| Cc1cccc(C[C@@H]2NC(=O)[C@H](CC(=O)O)NC(=O)[C@H](Cc3ccc(C(=O)O)cc3)NC(=O)[C@H](CCN)NC(=O)CSC[C@@H](C(=O)N[C@@H](CCN)C(=O)NCCOCCOCC(=O)NCCCCCCCCCCC(=O)O)NC(=O)[C@H](Cc3cnc[nH]3)NC(=O)[C@H](C(C)O)NC(=O)[C@H](CC3CCCCC3)NC(=O)[C@H](CCN)NC(=O)[C@@H](CC(C)C)NC(=O)[C@H](C)N(C)C(=O)[C@H](Cc3ccc(C(=O)O)cc3)NC(=O)[C@H](Cc3ccc(-c4ccccc4)cc3)NC(=O)[C@H](Cc3ccc(C(=O)O)cc3)NC2=O)c1 (stereo partly drawn) [Example 2550] ({CH2CO}-[Dab][Phe(4-COOH)]D[Phe(3-Me)][Phe(4-COOH)][Bip][Phe(4-COOH)][NMeA][dL][Dab][Cha][Thr(3ξ)]HC[Dab][AEEA][Aun]-OH; thioether N-14) | 2.8 |
| Cc1cccc(C[C@@H]2NC(=O)[C@H](CC(=O)O)NC(=O)[C@H](Cc3ccc(OCC(=O)O)cc3)NC(=O)[C@H](CCN)NC(=O)CSC[C@@H](C(=O)N[C@@H](CCN)C(=O)NCCOCCOCC(=O)NCCCCCCCCCCC(=O)O)NC(=O)[C@H](Cc3cnc[nH]3)NC(=O)[C@H](C(C)(C)O)NC(=O)[C@H](CC3CCCCC3)NC(=O)[C@H](CCN)NC(=O)[C@@H](CC(C)C)NC(=O)[C@H](C)N(C)C(=O)[C@H](Cc3ccc(OCC(=O)O)cc3)NC(=O)[C@H](Cc3ccc(-c4ccccc4)cc3)NC(=O)[C@H](Cc3ccc(OCC(=O)O)cc3)NC2=O)c1 [Example 2551] ({CH2CO}-[Dab]Y(Carboxymethyl)D[Phe(3-Me)]Y(Carboxymethyl)[Bip]Y(Carboxymethyl)[NMeA][dL][Dab][Cha][Val(3-OH)]HC[Dab][AEEA][Aun]-OH; thioether N-14) | 17.5 |
| Cc1cccc(C[C@@H]2NC(=O)[C@H](CC(=O)O)NC(=O)[C@H](Cc3ccc(C(=O)O)cc3)NC(=O)[C@H](CCN)NC(=O)CSC[C@@H](C(=O)N[C@@H](CCN)C(=O)NCCOCCOCC(=O)NCCCCCCCCCCC(=O)O)NC(=O)[C@H](CCC(=O)O)NC(=O)[C@H](C(C)O)NC(=O)[C@H](CC3CCCCC3)NC(=O)[C@H](CCN)NC(=O)[C@@H](CC(C)C)NC(=O)[C@H](C)N(C)C(=O)[C@H](Cc3ccc(C(=O)O)cc3)NC(=O)[C@H](Cc3ccc(-c4ccccc4)cc3)NC(=O)[C@H](Cc3ccc(C(=O)O)cc3)NC2=O)c1 (stereo partly drawn) [Example 2552] ({CH2CO}-[Dab][Phe(4-COOH)]D[Phe(3-Me)][Phe(4-COOH)][Bip][Phe(4-COOH)][NMeA][dL][Dab][Cha][Thr(3ξ)]EC[Dab][AEEA][Aun]-OH; thioether N-14) | 18.7 |
